9 compounds from patent publication US8847018B2, “Plants tolerant to HPPD inhibitor herbicides” (Bayer CropScience AG, priority 2009, dated 2014) can be followed below.

The target of experiment [1] is (UniProt Q0SC92). In words: biochemical. In kind it is biochemical, Rhodococcus sp. (strain RHA1), isolate ro03041. As to conditions: read-out: pI50 (converted).
Experiment [2] relates to Rhodococcus HPPD SEQ ID No. 5 (FMP22e). In words: biochemical. The experiment is classed as biochemical, Rhodococcus sp. (strain RHA1), isolate ro03041.
The target in experiment [3] is (UniProt Q0SF39). Nature of the experiment: biochemical. In kind it is biochemical, Rhodococcus sp. (strain RHA1), isolate ro02040. As to conditions: read-out: pI50 (converted).
For experiment [4], the system named is Rhodococcus HPPD SEQ ID No. 19 (FMP23e). Nature of the experiment: biochemical. In kind it is biochemical, Rhodococcus sp. (strain RHA1), isolate ro02040.
The test system of experiment [5] is T1 tobacco plants carrying FMP22e. In words: Response to bicyclopyrone, T1 tobacco classified by injury. The note with it: 100 g AI/ha, 7 DAT; for Class I (number of plants): injury: 0-30%; for Class II (number of plants): injury: 31-100%. In kind it is in vivo, Nicotiana tabacum. The text has this:
(§1) Seeds of wild type tobacco plants and T1 tobacco plants carrying the gene from Rhodococcus sp. (strain RHA1), isolate ro03041 FMP22e coding for HPPD FMP22 or plants carrying the gene from Rhodococcus sp. (strain RHA1) isolate ro02040 FMP23e coding for HPPD FMP23 were sown on MS media (Murashige and Skoog […]) supplemented with […] kanamycin. After 4 weeks, rooted green plantlets were transferred to soil and grown for 3 weeks in the glasshouse as described above then sprayed with a mixture containing bicyclopyrone (100 g Al/ha), ammonium sulfate and methyl ester raps oil. The plants were classified in two categories based on the phenotype developed in response to the herbicide seven days after the treatment. […] In this case, only plants containing at least one T-DNA were exposed to the herbicidal treatment.

In experiment [6] the test system is T1 tobacco plants carrying FMP23e. Described as above. In kind it is in vivo, Nicotiana tabacum. As to conditions: 100 g AI/ha, 7 DAT, FMP23e line 188.
From the text: as §1

Experiment [7] concerns Wild type tobacco plants. Described as above. The experiment is classed as in vivo, Nicotiana tabacum. As to conditions: 100 g AI/ha, 7 DAT, line WT.
From the text: as §1

In experiment [8] the target is (UniProt Q0SF39). Nature of the experiment: HPLC assay of HPPD in vitro kinetic properties. The experiment is classed as biochemical, Rhodococcus sp. (strain RHA1), isolate ro02040.
Experiment [9] has as its system Rhodococcus HPPD SEQ ID No. 19 (FMP23e). Nature of the experiment: HPLC assay of HPPD in vitro kinetic properties. The note with it: substrate HPP, 10 to 400 μM; SEQ ID No. 19. In kind it is biochemical, Rhodococcus sp. (strain RHA1), isolate ro02040.
The target of experiment [10] is T1, Arabidopsis thaliana HPPD SEQ ID No. 10 (Arabidopsis thaliana, UniProt P93836).
T1 sequence (P93836 with tags, fused parts or gaps): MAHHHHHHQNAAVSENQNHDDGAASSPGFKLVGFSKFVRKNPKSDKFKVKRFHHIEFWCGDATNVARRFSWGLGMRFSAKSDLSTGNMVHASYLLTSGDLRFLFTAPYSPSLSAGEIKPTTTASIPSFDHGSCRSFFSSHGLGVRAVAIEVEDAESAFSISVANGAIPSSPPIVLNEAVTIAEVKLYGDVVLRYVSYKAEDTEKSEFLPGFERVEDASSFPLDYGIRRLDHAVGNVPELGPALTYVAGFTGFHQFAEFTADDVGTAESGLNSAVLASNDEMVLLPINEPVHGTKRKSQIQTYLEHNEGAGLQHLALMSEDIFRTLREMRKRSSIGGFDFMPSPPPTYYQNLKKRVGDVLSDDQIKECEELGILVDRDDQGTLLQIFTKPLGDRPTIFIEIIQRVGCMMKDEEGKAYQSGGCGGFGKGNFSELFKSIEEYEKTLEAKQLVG
In words: HPLC assay of HPPD in vitro kinetic properties. The note with it: substrate HPP, 10 to 400 μM; SEQ ID No. 10.
Method: All assays were started by the addition of HPPD enzyme to the assay mixture and stopped at a series of times between 0 and 240 s by addition of 200 μl of the reaction mixture to reaction assay tubes containing 20 μl 10% perchloric acid. Precipitated protein was pelleted by a 5 minute centrifugation at 10,000 g. […] For Km and Vmax value determinations the initial rates of the HPPD reaction at different substrate concentrations were determined from plots of HGA formed versus time and fitted to the Michaelis-Menten equation for unireactant enzymes using the ID Business Solutions Ltd. (idbs.com) XLfit software suite.

The subject of experiment [11] is tobacco plants containing Arabidopsis HPPD. Nature of the experiment: Glasshouse trial, herbicidal damage on T1 tobacco. In kind it is in vivo, Nicotiana tabacum. The note with it: 7 DAT, 100 g AI/ha spray; Arabidopsis HPPD line 258, single T1 plants. The protocol: T0 Tobacco plants containing either the gene from Arabidopsis coding for HPPD or the gene FMP22e from Rhodococcus sp. (strain RHA1), isolate ro03041 coding for FMP22 HPPD, or the gene FMP23e from Rhodococcus sp. (strain RHA1), isolate ro02040 mentioned above (Example 3), were transferred to the glasshouse (28/20° C.), to develop further and produce seeds. Those seeds were harvested and put on soil (ED73 mixed with sand and osmocote Pro) to germinate in the glasshouse (28/20° C.). Three to four weeks later, plantlets were transferred to single pots containing the soil mentioned above. Two weeks later, plants of a size 4-6 cm diameter were sprayed with either • tembotrione at 100 gAl/ha prepared from a WP20 (wettable powder 20%) formulation supplemented with ammonium sulfate and methyl ester raps oil, or • isoxaflutole at 100 gAl/ha prepared from a WP20 formulation supplemented with ammonium sulfate and methyl ester raps oil, or • bicyclopyrone at 100 gAl/ha prepared from a WP20 formulation supplemented with ammonium sulfate and methyl ester raps oil, or • “blind formulation” made from a WP20 formulation without active ingredient (Al) supplemented with ammonium sulfate and methyl ester raps oil, and were then transferred to a growth chamber with adequate light conditions (20000 Lux).

Experiment [12] deals with transgenic soybean shoots, FMP22t-h. In words: Soybean shoot greening on isoxaflutole selection. The experiment is classed as cell-based. As to conditions: isoxaflutole as selection marker. From the text:
(§2) Soybean transformation is achieved using methods well known in the art, such as the one described using the Agrobacterium tumefaciens mediated transformation soybean half-seed explants described by Paz et al. (2006, Plant cell Rep. 25:206). Transformants were identified using Isoxaflutole as selection marker. The appearance of green shoots was observed, and documented as an indicator of tolerance to the herbicide isoxaflutole.

Experiment [13] relates to transgenic soybean shoots, FMP23t-h. Nature of the experiment: Soybean shoot greening on isoxaflutole selection. In kind it is cell-based. The note with it: isoxaflutole as selection marker.
From the text: as §2

Experiment [14] has as its system wild-type soybean shoots. Nature of the experiment: Soybean shoot greening on isoxaflutole selection. The experiment is classed as cell-based. The note with it: same amount of isoxaflutole.
From the text: as §2

Experiment [15] has as its target T1, Arabidopsis thaliana HPPD SEQ ID No. 10. In words: HPPD activity in presence of HPPD inhibitors (pI50, % inhibition). In kind it is biochemical. Further details: made in house; host or cells: E. coli K-12 BL21 (pQE30-AtHPPD).
The mark [16] stands for this setting: SEQ ID No. 5, 5.0 × 10^−6 M inhibitor.
Where [17] appears, read: SEQ ID No. 19, 5.0 × 10^−6 M inhibitor.

Like-named read-outs stand apart in the source and are kept apart here.

As for `Cc1ccc(C(=O)COc2c(C(=O)c3ccc(Cl)c(C)c3Cl)c(C)nn2C)cc1` [Benzofenap], the IC50 in [1] was 3.98 µM; in experiment [3] it was 2.51 µM. Moreover, the “percentage of inhibition compared to activity in absence of the inhibitor” value (“percentage of inhibition” below) in experiment [2] (setting [16]) is given as 57%; in experiment [4] (setting [17]) it was 72%.

Turning to `COCCOCc1nc(C(F)(F)F)ccc1C(=O)C1=C(O)C2CCC(C2)C1=O` (stereo not drawn) [Bicyclopyrone, 4-hydroxy-3-[[2-[(2-methoxyethoxy)methyl]-6-(trifluoromethyl)-3-pyridinyl]carbonyl]bicyclo[3.2.1]oct-3-en-2-one], the IC50 in experiment [1] is 126 µM; in [3] it was 63.1 µM. The results for the “percentage of inhibition” value in [2] (setting [16]) and in [4] (setting [17]) were 0% and 1%, respectively. Also, the “% of tolerant plant” value in experiment [5] (FMP22e line 64) was above 50%; in experiment [5] (FMP22e line 65), 64%; in [5] (FMP22e line 163) it was 50%; in experiment [6], 59%; in [7], 0%. For the same compound, the “Class I (number of plants)” value was above 100 in experiment [5] (FMP22e line 64); 86 in [5] (FMP22e line 65); 45 in [5] (FMP22e line 163); 100 in [6] (injury: 0-30%); 0 in [7] (Class I: no to light injuries (injury: 0-30%)). Further, the “Class II (number of plants)” value in experiment [5] (FMP22e line 64) is 104; in experiment [5] (FMP22e line 65), 48; in [5] (FMP22e line 163) it was 46; in experiment [6] (injury: 31-100%) it was 70; in experiment [7] (Class II: strong injuries (injury: 31-100%)), 12.

With `CS(=O)(=O)c1cc(C(F)(F)F)ccc1C(=O)C(C#N)C(=O)C1CC1` (stereo not drawn) [Diketonitrile, 2-cyano-3-cyclopropyl-1-(2-methylsulphonyl-4-trifluoromethylphenyl)-propane-1,3-dione], the affinity in experiment [8], expressed as Ki, was 3.6 µM. The IC50 in experiment [1] is 15.8 µM; in experiment [3] it was 25.1 µM. Besides, the “percentage of inhibition” value in experiment [2] (setting [16]) amounted to 27%; in [4] (setting [17]) it was 11%.

For the compound `O=C(O)C(=O)Cc1ccc(O)cc1` [HPP, para-hydroxyphenylpyruvate], the figures for the Km in [9] and in [10] were 35 µM and 6.3 µM, respectively. The Vmax in [9] came out at 1.1 µM; in experiment [10], 1.2 µM.

Take `CS(=O)(=O)c1cc(C(F)(F)F)ccc1C(=O)c1cnoc1C1CC1` [Isoxaflutole, (5-cyclopropyl-4-isoxazolyl)[2-(methylsulfonyl)-4-(trifluoromethyl)phenyl]methanone]: in experiment [11], the “% injury” value came to 100%. Further, the “transgenic tested shoots showing normal greening” value worked out at 1.8% in [12] and 1.9% in experiment [13]. In experiment [14], the “appearance of shoots treated with isoxaflutole” value is reported as “entirely bleached”.

On to `CS(=O)(=O)c1ccc(C(=O)C2C(=O)CCCC2=O)c([N+](=O)[O-])c1` [Mesotrione, 2-[4-(methylsulfonyl)-2-nitrobenzoyl]-1,3-cyclohexanedione], for which the entries for the “percentage of inhibition” value in experiment [2] and in experiment [4] were 54% and 67%, respectively.

As to `Cc1nn(C)c(O)c1C(=O)c1ccc(C(F)(F)F)cc1S(C)(=O)=O` [Pyrasulfotole], the pI50 in experiment [2] (SEQ ID No. 5, 2 mM HPP, 3 minutes incubation) is on record as 4.0; in [4] (SEQ ID No. 19, 2 mM HPP, 3 minutes incubation), 4.1; in [15] (2 mM HPP, 3 minutes incubation), 5.4. Besides, the “percentage of inhibition” value in experiment [2] (setting [16]) was determined as 0%; in experiment [4] (setting [17]) it was 2%; in [15] (5.0 × 10^−6 M inhibitor), 69%.

In experiment [2], `CS(=O)(=O)c1ccc(C(=O)C2C(=O)CCCC2=O)c(Cl)c1` [Sulcotrione, 2-[2-chloro-4-(methylsulfonyl)benzoyl]-1,3-cyclohexanedione] yielded a pI50 of 5.3. For the same compound, in [4], the pI50 came to 5.5 and the “percentage of inhibition” value was 73%.

Turning to `CS(=O)(=O)c1ccc(C(=O)C2C(=O)CCCC2=O)c(Cl)c1COCC1CCCO1` (stereo not drawn) [Tefuryltrione, 2-[2-chloro-4-(methylsulfonyl)-3-[[(tetrahydro-2-furanyl)methoxy]methyl]benzoyl]-1,3-cyclohexanedione], the IC50 in experiment [1] was 6.31 µM; in experiment [3] it was 2.51 µM. For the same compound, the “percentage of inhibition” value was 43% in experiment [2] (setting [16]) and 65% in [4] (setting [17]).
